The assay concerns the target T1, voltage gated potassium channel Kv1.3 (Homo sapiens, UniProt P22001).
T1 construct: expressed in transfected cells; host or cells: CHO cells
The experiment in a line: In vitro inhibition of Kv1.3 potassium channels (Rb efflux, atomic absorption). To be noted: CHO cells over-expressing Kv1.3, Rb efflux after depolarization, triplicate; for inhibition at 10 µM: 10^−5 M, read-out: percentage Kv1.3 inhibition at 10^−5M. The format is cell-based. The text has this:
In vitro inhibition of Kv1.3 potassium channels: the assay was used to determine the permeability of potassium ion channels expressed in the cell membrane. […] Adherent CHO cells over-expressing the voltage gated potassium channel Kv1.3 were loaded with Rb. Depolarization of the cells leads to opening of the potassium channels and to efflux of Rb through the potassium channels. Thus, the Rb concentration in the supernatant is proportional to the potassium ion channel permeability. To identify potassium channel blockers, cells were incubated with compounds before depolarization. A reduction of Rb in the supernatant indicated the presence of a potassium ion channel blocker. The Rb concentration in the supernatant was measured using an Atomic Absorption Spectrometer.
CHO cells expressing either Kv1.3, Kv1.5 or hERG ion channels were cultured at 37° C./5% CO2. Prior to the experiment cells were seeded in 96 well plates (Corning, N.Y., USA) and cultured for 24 h. Medium was discarded and replaced by 100 μl Rb buffer (10 mM HEPES pH 7.4, 5 mM Glucose, 5 mM RbCl, 140 mM NaCl, 2 mM CaCl2, 1 mM MgSO4) per well. After 4 h incubation the cells were washed three times with low potassium buffer (10 mM HEPES pH 7.4, 5 mM Glucose, 5 mM KCl, 140 mM NaCl, 2 mM CaCl2, 1 mM MgSO4). Compounds were dissolved in 75 μl low potassium buffer and added to the cells. After 12 minutes cells were depolarized by adding […] high potassium buffer (10 mM HEPES pH 7.4, 5 mM Glucose, 145 mM KCl, 2 mM CaCl2, 1 mM MgSO4), followed by additional 15 minutes of incubation. The supernatant was transferred in a 96 well plate and the Rb concentration was measured using a ZEEnit Atomic Absorption Spectrometer (Analytik Jena, Germany). By comparing control vs. depolarized w/o compound, the ion channel inhibition was determined. Measurements were done in triplicate.

As a reminder, the inhibition is the change of the read-out against control, counted positive when it falls.

T1 sequence (P22001 whole entry): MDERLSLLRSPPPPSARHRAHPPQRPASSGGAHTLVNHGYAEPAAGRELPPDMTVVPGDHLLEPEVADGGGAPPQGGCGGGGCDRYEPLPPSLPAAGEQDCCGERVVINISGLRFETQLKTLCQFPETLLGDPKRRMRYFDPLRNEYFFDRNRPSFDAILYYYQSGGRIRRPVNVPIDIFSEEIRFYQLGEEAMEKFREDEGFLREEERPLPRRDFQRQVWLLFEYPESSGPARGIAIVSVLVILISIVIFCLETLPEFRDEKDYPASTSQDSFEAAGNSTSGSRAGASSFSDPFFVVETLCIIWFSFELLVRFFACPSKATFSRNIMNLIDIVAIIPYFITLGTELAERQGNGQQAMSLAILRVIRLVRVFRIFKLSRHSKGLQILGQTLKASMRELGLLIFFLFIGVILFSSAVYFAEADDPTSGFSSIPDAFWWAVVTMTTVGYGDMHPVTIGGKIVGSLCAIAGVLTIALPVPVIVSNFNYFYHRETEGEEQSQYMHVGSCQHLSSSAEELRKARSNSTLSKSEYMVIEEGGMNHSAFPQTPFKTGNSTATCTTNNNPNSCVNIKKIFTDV

Turning to `C[C@H](c1ccccc1)N1C[C@@]2(CCCN(C(=O)c3cc(C(F)(F)F)cc(C(F)(F)F)c3)CC2)OC1=O` [Compound 32, (5S)-8-[3,5-bis(trifluoromethyl)benzoyl]-3-[(1R)-1-phenylethyl]-1-oxa-3,8-diazaspiro[4.6]-undecan-2-one], the inhibition at 10 µM stood at 99%.
Regarding `C[C@@H](c1ccccc1)N1C[C@]2(CCCN(C(=O)c3cc(C(F)(F)F)cc(C(F)(F)F)c3)CC2)OC1=O` [Compound 30, (5R)-8-[3,5-bis(trifluoromethyl)benzoyl]-3-[(1S)-1-phenylethyl]-1-oxa-3,8-diazaspiro[4.6]-undecan-2-one], the inhibition at 10 µM was 75%.
As to `C[C@H](c1ccccc1)N1CC2(CCCN(C(=O)c3cc(C(F)(F)F)cc(C(F)(F)F)c3)CC2)OC1=O` (stereo partly drawn) [Compound 31, 8-(3,5-trifluoromethyl-benzoyl)-3-[(R)-1-phenyl-ethyl]-1-oxa-3,8-diazaspiro[4.6]undecan-2-one], the “percentage Kv1.3 inhibition at 10^−5M” value stood at 64%.
`C[C@@H](c1ccccc1)N1C[C@@]2(CCCN(C(=O)c3cc(C(F)(F)F)cc(C(F)(F)F)c3)CC2)OC1=O` [Compound 29, (5S)-8-[3,5-bis(trifluoromethyl)benzoyl]-3-[(1S)-1-phenylethyl]-1-oxa-3,8-diazaspiro[4.6]-undecan-2-one]: the inhibition at 10 µM is 100%.

The values are drawn from patent US8575148B2, “Spiro azepane-oxazolidinones as Kv1.3 potassium channel blockers” (Abbott Healthcare Products B.V., priority 2008, dated 2013).
